# Measurements published in patent publication US10633348B2, “Methods to treat lymphoplasmacytic lymphoma” (Dana-Farber Cancer Institute, Inc., priority 2013, dated 2020).
# What was measured:
# Assay type in all cases: cell-based
# GCN2 = tested on: GCN2
# KSR1 = tested on: KSR1
# p38d, p38g = experiment: KiNativ kinase profiling in A375 cells; details: Lys2, SEQ ID NO 130, 1.0 μM
# IRE1 = tested on: IRE1
# MAP3K2 = tested on: MAP3K2
# PAN3 = tested on: PAN3
# ZAP70 = tested on: ZAP70
# Ramos = experiment: CellTiter-Glo cell viability assay; details: Homo sapiens, 72 h
# Method: (§1) CellTiter-Glo® Luminescent cell viability assay (Promega) was used to assess cell survival following treatment with the compounds described. Cells were seeded into 384 well plates with the EL406 Combination Washer Dispenser (BioTek Instruments, Inc.) and the compounds were injected into the cells culture media with the JANUS Automated Workstation (PerkinElmer Inc.). Cells were treated with a series diluted inhibitors (20˜0.04 μM) for 72 hours at 37° C. Luminescent measurement is performed using the 2104 Envision® Multilabel Reader (PerkinElmer Inc.).
# OCI-Ly19 = experiment: CellTiter-Glo cell viability assay; details: Homo sapiens, OCI-LY19, 72 h
# Method: as §1
# MWCL-1 = experiment: CellTiter-Glo cell viability assay; details: 72 h
# Method: as §1
# BCWM.1 = experiment: CellTiter-Glo cell viability assay; details: BCWM1, 72 h
# Method: as §1
# EPHB2 = tested on: EPHB2
# CDK6 = tested on: CDK6
# RSK1 domain2 = tested on: RSK1 domain2
# Abl = experiment: KiNativ kinase profiling in A375 cells
# MER = tested on: MER
# ERK5 = tested on: ERK5
# FYN = experiment: KiNativ kinase profiling in A375 cells
# FER = tested on: FER
# EPHB1 = tested on: EPHB1
# SYK = tested on: SYK
# LYN = tested on: LYN
# ZAK = tested on: ZAK
# MAP3K1 = tested on: MAP3K1
# PYK2 = tested on: PYK2
# TAO1, TAO3 = experiment: KiNativ kinase profiling in A375 cells; details: Lys2, SEQ ID NO 182, 1.0 μM
# MYO3A, MYO3B = experiment: KiNativ kinase profiling in A375 cells; details: Lys2, SEQ ID NO 115, 1.0 μM
# ILK = tested on: ILK
# LRRK2 = tested on: LRRK2
# BTK-pY223 = experiment: PhosFlow; details: BCWM.1, Hck-wt and Hck-mu BCWM.1 cells; 0.5 μM and 0.1 μM
# Method: PhosFlow was performed to detect levels of phosphorylation for BTK-pY223 (BD Biosciences) and Hck-pY410 (Abcam) in BCWM.1 cells, in BCWM cells that stably overexpress HCK (BCWM.1_HCK-wt) and in BCWM.1 cells that stably overexpress the T338M mutant of HCK (BCWM.1_HCK-mu). Cells were fixed with BD Phosflow Fix Buffer I (BD Biosciences) at 37° C. for 10 min, then washed twice with BD Phosflow Perm/Wash Buffer I (BD Biosciences). Cells were suspended in BD Phosflow Perm/Wash Buffer I at 10 million/ml and antibodies aliquoted to flow tubes with 100 μl cells. Cells were incubated at room temperature for 30 min in the dark. Cells were washed twice with BD Phosflow Perm/Wash Buffer I before performing flow analysis using a BD™ FACSCanto II flow cytometer.
# [1] = tested on: WM patient primary lymphoplasmacytic cells (LPCs); experiment: Apoptosis analysis (Annexin V/Propidium iodide); details: for Apoptosis (%): 24 hours
# Method: WM cells were treated with and without the compounds described herein. Cells were incubated at 37° C. with 0.01˜4 uM of the compounds described herein. Apoptosis analysis was performed using Annexin V/Propidium iodide staining with the Apoptosis Detection Kit I (BD Pharmingen). 1×10^6/well cells were treated in 24 well plates for ˜24 hours with inhibitors or corresponding controls. A minimum of 10,000 events were acquired using a BD™ FACSCanto II flow cytometer and analyzed with BD FACS DIVA Software.
# Apoptosis analysis of WM patient primary lymphoplasmacytic cells (LPCs) was preformed following A-5 and A-14 treatment of Bone marrow mononuclear cells (BMMC) from WM patients for 24 hours. Apoptosis analysis was performed using Annexin V/Propidium iodide staining with the Apoptosis Detection Kit I (BD Pharmingen) in CD19-APC-cy7 antibody (BD Pharmingen) gated LPCs population.
smiles,measurement,setting,value
"CCN1CCN(Cc2ccc(NC(=O)c3ccc(C)c(Oc4cc(N)ncn4)c3)cc2C(F)(F)F)CC1 [(A-4), 3-((6-aminopyrimidin-4-yl)oxy)-N-(4-((4-ethylpiperazin-1-yl)methyl)-3-(trifluoromethyl)phenyl)-4-methylbenzamide]",inhibition of kinase labeling,GCN2,20.8%
same,inhibition of kinase labeling,KSR1,−22.0%
same,inhibition of kinase labeling,"p38d, p38g",62.5%
same,inhibition of kinase labeling,IRE1,−2.2%
same,inhibition of kinase labeling,MAP3K2,4.2%
same,inhibition of kinase labeling,PAN3,12.1%
same,inhibition of kinase labeling,ZAP70,49.2%
same,EC50,Ramos,21.1 µM
same,EC50,OCI-Ly19,9.43 µM
same,EC50,MWCL-1,1.15 µM
same,EC50,BCWM.1,3.01 µM
same,inhibition of kinase labeling,EPHB2,−12.8%
same,inhibition of kinase labeling,CDK6,13.1%
same,inhibition of kinase labeling,RSK1 domain2,−16.3%
same,inhibition of kinase labeling,"Abl; ABL, ARG, Activation Loop, SEQ ID NO 1, 1.0 μM, A375 cells",95.5%
same,inhibition of kinase labeling,MER,49.8%
same,inhibition of kinase labeling,ERK5,25.9%
same,inhibition of kinase labeling,"FYN; FYN, SRC, YES, Activation Loop, SEQ ID NO 50, 1.0 μM, A375 cells",71.2%
same,inhibition of kinase labeling,FER,91.4%
same,inhibition of kinase labeling,EPHB1,−1.7%
same,inhibition of kinase labeling,SYK,17.4%
same,inhibition of kinase labeling,LYN,87.8%
same,inhibition of kinase labeling,ZAK,75.7%
same,inhibition of kinase labeling,MAP3K1,26.9%
same,inhibition of kinase labeling,PYK2,10.9%
same,inhibition of kinase labeling,"TAO1, TAO3",76.5%
same,inhibition of kinase labeling,"MYO3A, MYO3B",−15.3%
same,inhibition of kinase labeling,ILK,5.2%
same,inhibition of kinase labeling,LRRK2,−15.9%
"CCN1CCN(Cc2ccc(NC(=O)c3ccc(C)c(Oc4ccnc(Nc5cnn(C)c5)n4)c3)cc2C(F)(F)F)CC1 [(A-14), N-(4-((4-ethylpiperazin-1-yl)methyl)-3-(trifluoromethyl)phenyl)-4-methyl-3-((2-((1-methyl-1H-pyrazol-4-yl)amino)pyrimidin-4-yl)oxy)benzamide]",BTK phosphorylation,BTK-pY223,inhibit
same,EC50,Ramos,2.09 µM
same,EC50,OCI-Ly19,0.179 µM
same,EC50,MWCL-1,0.128 µM
same,EC50,BCWM.1,0.033 µM
same,Apoptosis (%),"[1]; Patient 5, 0.5 μM",39.24%
same,Apoptosis (%),"[1]; Patient 5, 1.0 μM",46.86%
same,Apoptosis (%),"[1]; Patient 6, 1.0 μM",20.88%
same,Apoptosis (%),"[1]; Patient 7, 0.5 μM",22.62%
same,Apoptosis (%),"[1]; Patient 7, 1.0 μM",31.51%
same,Apoptosis (%),"[1]; Patient 8, 0.5 μM",12.9%
same,Apoptosis (%),"[1]; Patient 8, 1.0 μM",31.58%
same,Apoptosis (%),"[1]; Patient 9, 0.2 μM",24.8%
same,Apoptosis (%),"[1]; Patient 9, 1.0 μM",43.7%
same,Apoptosis (%),"[1]; Patient 10, 0.2 μM",27.9%
same,Apoptosis (%),"[1]; Patient 10, 1.0 μM",52%
same,Apoptosis (%),"[1]; Patient 11, 0.2 μM",53.1%
same,Apoptosis (%),"[1]; Patient 11, 1.0 μM",71.8%
same,apoptosis compared with DMSO control,[1]; WM patient primary LPCs,induced significant apoptosis
same,Abl inhibition,"Abl; 1 μM, A375 cells",> 90%
same,KiNativ inhibition,"Abl; ABL, ARG, Activation Loop, SEQ ID NO 200, 1.0 μM",98.4%
same,FYN inhibition,"FYN; 1 μM, A375 cells",88.2%
same,KiNativ inhibition,"FYN; FYN, SRC, YES, Activation Loop, SEQ ID NO 255, 1.0 μM",88.2%
same,KiNativ inhibition,LYN,85.7%
same,LYN inhibition,LYN,85.7%
same,KiNativ inhibition,ZAK,75.8%
same,ZAK inhibition,ZAK,75.8%
